N#CNC(=N)N
solubility (mole fraction)
Details	278.15 K	283.15 K	288.15 K	293.15 K	298.15 K	303.15 K	308.15 K	313.15 K	318.15 K	323.15 K
in DMF	0.183	0.19	0.205	0.215	0.225	0.243	0.248	0.256	0.268	0.275
in acetone	0.00744	0.0084	0.00923	0.0101	0.011	0.0118	0.0127	0.0136	0.0144	0.015
in ethanol	0.00374	0.00403	0.00449	0.00493	0.00591	0.00654	0.00738	0.00805	0.00883	0.0097
in ethylene glycol	0.0187	0.0245	0.0289	0.0377	0.048	0.0587	0.0655	0.0805	0.0995	0.12
in methanol	0.0141	0.0162	0.0193	0.021	0.0231	0.0264	0.028	0.0297	0.032	0.0347
in water	0.00303	0.00387	0.00526	0.00707	0.00891	0.0114	0.0141	0.0172	0.021	0.0265
